# Measurements published in patent US5916906A, “Compositions comprising nicotinylalanine and an inhibitor of glycine conjugation or vitamin B6” (priority 1997, dated 1999).
# Where two headings read alike, the source gives them in different places.
# Assays:
# [1] = Plasma nicotinamide, NAL and NAL-X levels by HPLC after i.p. nicotinylalanine with or without ASA in uninfected mice; type: in vivo, C57BL/6 mice; conditions: for Plasma nicotinamide (NAm) level / concentration at 2 h: mean ± S.E., N=8; for concentration at 2 h: mouse, plasma, ip, 400 mg/kg, read-out: Plasma nicotinylalanine (NAL) level
# Experimental: The concentration of nicotinamide and its major metabolites were determined by comparison of peak area ratios of the unknown versus internal standard (6-methylnicotinamide, Sigma Chemical Company) to the standard curves run in control mouse blood plasma.
# Mice were treated with racemic nicotinylalanine alone (400 mg/kg) or in combination with acetyl salicylic acid (ASA) at a dose of either 20 mg/kg or 100 mg/kg body weight. […] Control mice received the vehicle for the drug compositions, being phosphate buffered saline (PBS), at the same volume on the same dose schedule as the drug-treated mice. Chronic dosing was performed daily for two weeks, Monday through Friday, and one group of mice received only a single (acute) dose of nicotinylalanine. All mice were killed two hours after their final dose and blood was collected by cardiac puncture and stored on ice, until centrifugation in a microfuge at 10,000 rpm to obtain plasma.
# Concentrations of nicotinamide, nicotinamide-oxide, 1-methyl-nicotinamide, and nicotinylalanine extracted from 90% methanol, dried under N2, and reconstituted in water as above were determined by comparison of the peak area ratios of the unknown vs. the internal standard to the standard curve. Concentrations of the unidentified nicotinylalanine metabolite (NAL-X) were determined in the same way as above, except peaks were compared to the standard curve for known nicotinylalanine. The results are expressed as nanomoles of nicotinamide and nicotinylalanine per ml of plasma (nmol/ml).
# [2] = Behavioral toxicity, chronic i.p. dosing in mice; type: in vivo, C57BL/6 mice; conditions: chronic i.p. racemic NAL 400 mg/kg, more than four months
# Experimental: Results from studies in a mouse model of AIDS (i.e., the LP-BM5 strain of murine leukemia virus-induced murine acquired immunodeficiency syndrome, MAIDS) are consistent with efficacy of a parenteral dose in humans of nicotinylalanine (isomer) between about 100 and 200 mg/kg body weight per day in combination with aspirin at about 20 mg/kg per day. […] Connick J. H., et al., Gen. Pharmac., 23:235-239, 1992. […] Vague P., et al., Lancet, I:619-620, 1987. This is consistent with the lack of toxicity reported for NAm in other human studies. (Hoffer A., Schizophrenia, 1:78-87, 1969).
# [3] = acute (single) NAL 400 mg/kg i.p., two hours after dose
# [4] = chronic (2 Week) dosing of nicotinylalanine alone
# [5] = chronic (2 weeks) NAL 400 mg/kg i.p. alone, two hours after last dose
# [6] = two hours after acute i.p. 400 mg/kg NAL
structure (smiles),measurement,setting,value
"NC(CC(=O)c1cccnc1)C(=O)O (racemic) [NAL, γ-(3-pyridyl)-γ-oxo-α-aminobutyrate]",Plasma nicotinamide (NAm) level,[1]; [3],7.4 ± 2.3 nmol/mL
same,Change in plasma nicotinylalanine levels,[1]; [4],nearly ten-fold decrease
same,Nicotinamide plasma level (in words),[1]; [4],return to nearly baseline levels of nicotinamide
same,Plasma nicotinamide (NAm) level,[1]; [5],4.7 ± 1.1 nmol/mL
same,concentration at 2 h,[1]; [3],115 ± 65.6 µM
same,concentration at 2 h,[1]; [5],11.2 ± 4.5 µM
same,Nicotinamide plasma level versus PBS-injected controls,[1]; [6],about twice those found in PBS-injected controls
same,Plasma level of NAL versus NAL-X,[1]; [6],about twice as high
same,Behavioral toxicity,[2],not been associated with obvious behavioral toxicity
